{"source": "patent US12493040B2", "about": "“Cancer detection method using sense of smell of nematode” (HIROTSU BIO SCIENCE INC., priority 2013, dated 2025)", "system": "RNAi-treated eri-1 (mg366) nematodes", "experiment": "RNAi screening of olfactory receptor genes: chemotaxis assay of RNAi-treated nematodes to odorants", "format": "in vivo, Caenorhabditis elegans", "settings": "low concentration of attractant", "in_short": "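Chemotaxis of adult RNAi-fed eri-1 (mg366) nematodes (30–50 per test) was measured toward low (1 μl, 10^−3 or 10^−4 dilution) or high (1 and 5 μl neat) odorant doses. Knockdown: 4 days feeding on E. coli from Ahringer library with IPTG and ampicillin. Differences called by z score at ±1.96, weaker cutoff ±0.96.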", "data": [{"compound": "CCC(=O)C(C)=O", "note": "[pentanedione]", "values": [{"measurement": "chemotaxis index", "setting": "Control nematodes", "result": "0.49 ± 0.020"}, {"measurement": "chemotaxis index", "setting": "srh-10 RNAi-treated nematodes", "result": 0.68}, {"measurement": "chemotaxis index", "setting": "srh-11 RNAi-treated nematodes", "result": 0.75}, {"measurement": "chemotaxis index", "setting": "srh-15 RNAi-treated nematodes", "result": 0.44}, {"measurement": "chemotaxis index", "setting": "srh-16 RNAi-treated nematodes", "result": 0.95}, {"measurement": "chemotaxis index", "setting": "srh-18 RNAi-treated nematodes", "result": 0.96}, {"measurement": "chemotaxis index", "setting": "srh-19 RNAi-treated nematodes", "result": 0.64}, {"measurement": "chemotaxis index", "setting": "srh-22 RNAi-treated nematodes", "result": 0.42}, {"measurement": "chemotaxis index", "setting": "srh-23 RNAi-treated nematodes", "result": 0.48}, {"measurement": "chemotaxis index", "setting": "srh-24 RNAi-treated nematodes", "result": 0.59}, {"measurement": "chemotaxis index", "setting": "srh-25 RNAi-treated nematodes", "result": 0.95}, {"measurement": "chemotaxis index", "setting": "srh-27 RNAi-treated nematodes", "result": 0.27}, {"measurement": "chemotaxis index", "setting": "srh-28 RNAi-treated nematodes", "result": 0.22}, {"measurement": "chemotaxis index", "setting": "srh-36 RNAi-treated nematodes", "result": 0.26}, {"measurement": "chemotaxis index", "setting": "srh-37 RNAi-treated nematodes", "result": 0.60}, {"measurement": "chemotaxis index", "setting": "srh-39 RNAi-treated nematodes", "result": "−0.24"}, {"measurement": "chemotaxis index", "setting": "srh-40 RNAi-treated nematodes", "result": 0.47}, {"measurement": "chemotaxis index", "setting": "srh-41 RNAi-treated nematodes", "result": 0.57}, {"measurement": "chemotaxis index", "setting": "srh-44 RNAi-treated nematodes", "result": 0.52}, {"measurement": "chemotaxis index", "setting": "srh-45 RNAi-treated nematodes", "result": 0.26}, {"measurement": "chemotaxis index", "setting": "srh-46 RNAi-treated nematodes", "result": 0.03}, {"measurement": "chemotaxis index", "setting": "srh-48 RNAi-treated nematodes", "result": 0.38}, {"measurement": "chemotaxis index", "setting": "srh-49 RNAi-treated nematodes", "result": 0.60}, {"measurement": "chemotaxis index", "setting": "srh-50 RNAi-treated nematodes", "result": 0.53}, {"measurement": "chemotaxis index", "setting": "srh-51 RNAi-treated nematodes", "result": 0.63}, {"measurement": "chemotaxis index", "setting": "srh-52 RNAi-treated nematodes", "result": 0.51}, {"measurement": "chemotaxis index", "setting": "srh-55 RNAi-treated nematodes", "result": 0.49}, {"measurement": "chemotaxis index", "setting": "srh-59 RNAi-treated nematodes", "result": "−0.14"}, {"measurement": "chemotaxis index", "setting": "srh-60 RNAi-treated nematodes", "result": 0.22}, {"measurement": "chemotaxis index", "setting": "srh-61 RNAi-treated nematodes", "result": 0.40}, {"measurement": "chemotaxis index", "setting": "srh-67 RNAi-treated nematodes", "result": 0.41}, {"measurement": "chemotaxis index", "setting": "srh-68 RNAi-treated nematodes", "result": 0.21}, {"measurement": "chemotaxis index", "setting": "srh-69 RNAi-treated nematodes", "result": 0.13}, {"measurement": "chemotaxis index", "setting": "srh-70 RNAi-treated nematodes", "result": 0.25}, {"measurement": "chemotaxis index", "setting": "srh-71 RNAi-treated nematodes", "result": 0.14}, {"measurement": "chemotaxis index", "setting": "srh-72 RNAi-treated nematodes", "result": 0.29}, {"measurement": "chemotaxis index", "setting": "srh-74 RNAi-treated nematodes", "result": 0.42}, {"measurement": "chemotaxis index", "setting": "srh-75 RNAi-treated nematodes", "result": 0.53}, {"measurement": "chemotaxis index", "setting": "srh-77 RNAi-treated nematodes", "result": 0.32}, {"measurement": "chemotaxis index", "setting": "srh-79 RNAi-treated nematodes", "result": 0.53}, {"measurement": "chemotaxis index", "setting": "srh-80 RNAi-treated nematodes", "result": 0.41}, {"measurement": "chemotaxis index", "setting": "srh-82 RNAi-treated nematodes", "result": 0.49}, {"measurement": "chemotaxis index", "setting": "srh-83 RNAi-treated nematodes", "result": 0.72}, {"measurement": "chemotaxis index", "setting": "srh-97 RNAi-treated nematodes", "result": 0.74}, {"measurement": "chemotaxis index", "setting": "srh-99 RNAi-treated nematodes", "result": 0.54}, {"measurement": "chemotaxis index", "setting": "srh-100 RNAi-treated nematodes", "result": 0.35}, {"measurement": "chemotaxis index", "setting": "srh-104 RNAi-treated nematodes", "result": "−0.30"}, {"measurement": "chemotaxis index", "setting": "srh-105 RNAi-treated nematodes", "result": 0.27}, {"measurement": "chemotaxis index", "setting": "srh-109 RNAi-treated nematodes", "result": 0.65}, {"measurement": "chemotaxis index", "setting": "srh-111 RNAi-treated nematodes", "result": 0.39}, {"measurement": "chemotaxis index", "setting": "srh-113 RNAi-treated nematodes", "result": 0.14}, {"measurement": "chemotaxis index", "setting": "srh-115 RNAi-treated nematodes", "result": 0.39}, {"measurement": "chemotaxis index", "setting": "srh-116 RNAi-treated nematodes", "result": 0.22}, {"measurement": "chemotaxis index", "setting": "srh-118 RNAi-treated nematodes", "result": 0.44}, {"measurement": "chemotaxis index", "setting": "srh-119 RNAi-treated nematodes", "result": 0.18}, {"measurement": "chemotaxis index", "setting": "srh-120 RNAi-treated nematodes", "result": 0.80}, {"measurement": "chemotaxis index", "setting": "srh-122 RNAi-treated nematodes", "result": 0.24}, {"measurement": "chemotaxis index", "setting": "srh-123 RNAi-treated nematodes", "result": 0.30}, {"measurement": "chemotaxis index", "setting": "srh-125 RNAi-treated nematodes", "result": 0.08}, {"measurement": "chemotaxis index", "setting": "srh-128 RNAi-treated nematodes", "result": 0.49}, {"measurement": "chemotaxis index", "setting": "srh-129 RNAi-treated nematodes", "result": 0.15}, {"measurement": "chemotaxis index", "setting": "srh-130 RNAi-treated nematodes", "result": 0.36}, {"measurement": "chemotaxis index", "setting": "srh-214 RNAi-treated nematodes", "result": 0.88}, {"measurement": "chemotaxis index", "setting": "srh-216 RNAi-treated nematodes", "result": 0.65}, {"measurement": "chemotaxis index", "setting": "srh-217 RNAi-treated nematodes", "result": 0.92}, {"measurement": "chemotaxis index", "setting": "srh-220 RNAi-treated nematodes", "result": 0.67}, {"measurement": "chemotaxis index", "setting": "srh-222 RNAi-treated nematodes", "result": 0.46}, {"measurement": "chemotaxis index", "setting": "srh-223 RNAi-treated nematodes", "result": 0.23}, {"measurement": "chemotaxis index", "setting": "srh-227 RNAi-treated nematodes", "result": 0.60}, {"measurement": "chemotaxis index", "setting": "srh-229 RNAi-treated nematodes", "result": 0.12}, {"measurement": "chemotaxis index", "setting": "srh-233 RNAi-treated nematodes", "result": 0.33}, {"measurement": "chemotaxis index", "setting": "srh-235 RNAi-treated nematodes", "result": 0.51}, {"measurement": "chemotaxis index", "setting": "srh-236 RNAi-treated nematodes", "result": 0.37}, {"measurement": "chemotaxis index", "setting": "srh-239 RNAi-treated nematodes", "result": 0.49}, {"measurement": "chemotaxis index", "setting": "srh-241 RNAi-treated nematodes", "result": 0.63}, {"measurement": "chemotaxis index", "setting": "srh-243 RNAi-treated nematodes", "result": 0.00}, {"measurement": "chemotaxis index", "setting": "srh-244 RNAi-treated nematodes", "result": 0.19}, {"measurement": "chemotaxis index", "setting": "srh-247 RNAi-treated nematodes", "result": 0.38}, {"measurement": "chemotaxis index", "setting": "srh-250 RNAi-treated nematodes", "result": 0.58}, {"measurement": "chemotaxis index", "setting": "srh-251 RNAi-treated nematodes", "result": 0.32}, {"measurement": "chemotaxis index", "setting": "srh-252 RNAi-treated nematodes", "result": 0.65}, {"measurement": "chemotaxis index", "setting": "srh-258 RNAi-treated nematodes", "result": 0.35}, {"measurement": "chemotaxis index", "setting": "srh-261 RNAi-treated nematodes", "result": 0.27}, {"measurement": "chemotaxis index", "setting": "srh-264 RNAi-treated nematodes", "result": 0.46}, {"measurement": "chemotaxis index", "setting": "srh-266 RNAi-treated nematodes", "result": 0.00}, {"measurement": "chemotaxis index", "setting": "srh-274 RNAi-treated nematodes", "result": 0.82}, {"measurement": "chemotaxis index", "setting": "srh-275 RNAi-treated nematodes", "result": 0.57}, {"measurement": "chemotaxis index", "setting": "srh-276 RNAi-treated nematodes", "result": 0.45}, {"measurement": "chemotaxis index", "setting": "srh-277 RNAi-treated nematodes", "result": 0.83}, {"measurement": "chemotaxis index", "setting": "srh-279 RNAi-treated nematodes", "result": 0.55}, {"measurement": "chemotaxis index", "setting": "srh-281 RNAi-treated nematodes", "result": 0.64}, {"measurement": "chemotaxis index", "setting": "srh-282 RNAi-treated nematodes", "result": 0.73}, {"measurement": "chemotaxis index", "setting": "srh-283 RNAi-treated nematodes", "result": 0.15}, {"measurement": "chemotaxis index", "setting": "srh-284 RNAi-treated nematodes", "result": 0.36}, {"measurement": "chemotaxis index", "setting": "srh-291 RNAi-treated nematodes", "result": 0.48}, {"measurement": "chemotaxis index", "setting": "srh-292 RNAi-treated nematodes", "result": 0.52}, {"measurement": "chemotaxis index", "setting": "srh-293 RNAi-treated nematodes", "result": 0.00}, {"measurement": "chemotaxis index", "setting": "srh-297 RNAi-treated nematodes", "result": 0.32}, {"measurement": "chemotaxis index", "setting": "srh-298 RNAi-treated nematodes", "result": 0.68}, {"measurement": "chemotaxis index", "setting": "srh-308 RNAi-treated nematodes", "result": 0.39}]}]}
